“Also recorded” adds a separate entry of the source.
What was measured:
UIIR = UIIR expression in cardiomyocytes treated with hypertrophic agonists (RT-PCR, western blot); format: cell-based, rat; settings: for UIIR mRNA expression: 10 μM PE or 100 nM AngII for 24 hours, RT-PCR; for UIIR protein expression: PE or AngII, western blot
Experimental: Cardiomyocytes were cultured in medium containing 0.2% FBS and either PE (10 μM) or AngII (100 nM) for 48 hours. Total RNA was isolated and reverse transcribed. cDNA was used as template to amplify UIIR. […] Cardiomyocytes were cultured in medium containing 0.2% FBS and either PE (10 μM) or AngII (100 nM) for 48 hours. Total protein was isolated and UIIR detected by western blot.
Expression of UIIR in myocytes treated with hypertrophic agonists. In order to validate the array data, we designed PCR primers to amplify UIIR. Cardiomyocyte cultures were treated with 10 μM PE or 100 nM AngII for 24 hours and total RNA was extracted following the Trizol protocol (Invitrogen). Total RNA was then used for template for reverse transcription. The cDNA generated from the RT reaction was then used as template to amplify UIIR and GAPDH as control.
To this end, we stimulated cardiomyocyte cultures with AngII and PE as before and isolated total protein. The total protein was resolved by PAGE (12% acrylamide), transferred to nitrocellulose, and blotted for UIIR using a specific antibody.

[1] = system: ANF, SkA and MEF2 reporters; settings: cardiomyocytes co-transfected with CaMKI; SB203580 10 μM or U0126 10 μM
Experimental: Cell Culture and Treatments. Cardiomyocytes were isolated from 2-4 day old Sprague-Dawley rats using the neonatal cardiomyocyte isolation system (Worthington Biolabs) based on a previously described protocol (45). Cells were plated in medium 199 supplemented with 10% fetal bovine serum (FBS, Atlanta Biologicals) and gentamycin (Fisher). Cells were maintained in medium 199 supplemented with 1.0% FBS and gentamycin. Prior to any treatment, cardiomyocyte cultures were incubated in medium 199 containing 0.2% serum for 24 hours. […] Cells were incubated in medium 199 containing 0.2% FBS prior to stimulation with the indicated reagents for reporter assays, RT-PCR, western blotting and immunoprecipitation.
Transient Transfection and Luciferase Assay. For transfections, cardiomyocytes were cultured in 12-well tissue culture plates as described. Once cultures were incubated in medium 199 with 0.2% serum for 24 hours, cultures were either infected with AdUIIR as described or were just transfected. […] Cardiomyocyte cultures were harvested 24-72 hours post treatment (per sample) and luciferase activity was determined by luminometry (Model TD 20/20 Luminometer, Turner Designs, Sunnyvale, Calif.) using a commercially available kit (Luciferase Substrate, Promega, Madison, Wis.).

[2] = system: ANF, SkA and MEF2 reporters; experiment: UII-stimulated ANF, SkA and MEF2 luciferase reporter assay in cardiomyocytes; format: cell-based, rat; settings: AdUIIR-infected cardiomyocytes; inhibitor 1 h prior to UII 100 nM; STO-609 250 ng/mL, SB203580 10 μM, U0126 10 μM, AKTi 5 μM
From the text: (§1) Cell Culture and Treatments. […] Plasmids and Adenoviral Constructs.
Transient Transfection and Luciferase Assay.

[3] = system: HDAC5/14-3-3β association; experiment: Immunoprecipitation of 14-3-3β and detection of bound HDAC5 in cardiomyocytes; format: cell-based, rat; settings: AdUIIR-infected cardiomyocytes; inhibitor 1 h prior to UII, 60 min
Experimental: as §1
For immunoprecipitation studies, Cardiomyocytes were cultured in 100-mm as described in the previous section. 24 h post-plating, cells were treated with UII and various pharmacological inhibitors as indictated. Following treatment, 14-3-3β was immunoprecipitated from whole cell lysate using a commercially available antibody (Abcam) and a protein G immunoprecipitation kit (IP50 Kit, Sigma, following manufacturer's protocol). HDAC5 was detected using a commercially-available antibody (Cell Signaling Technologies, Inc.).
UII stimulation induces association of HDAC5 with 14-3-3β in a CaMKK dependent manner. The activity of MEF2 is controlled, in part, by its association with class II HDACs in the nucleus. Class II HDACs repress the activity of MEF2-sensitive promoters by local deacetylation of nucleosomal histones causing the condensation of chromatin. The repressive influence of HDACs on MEF2 can be relieved by CaMK-dependent phosphorylation of HDACs, which results in their dissociation from MEF2. The dissociation of HDACs from MEF2 is accompanied by 14-3-3-mediated nuclear export of the HDACs. We have shown that UII stimulates the activity of MEF2. Next, to determine whether UII stimulates HDAC5 association with 14-3-3β, AdUIIR-infected cardiomyocytes were treated with UII for various times up to 60 min, and 14-3-3β was pulled down from the whole cell lysate by using an antibody specific for 14-3-3β and protein G agarose. HDAC5 was detected using a specific antibody.

PKD [4] = experiment: Western blot of AngII or Et-1 stimulated PKD phosphorylation in cardiomyocytes; format: cell-based, rat; settings: AngII 100 nM or Et-1 10 nM for 10 min; STO-609 250 ng/mL
Experimental: (§2) Whole cell lysates were subjected to Western blotting to determine the relative change in phosphorylation of ERK1/2 (FIG. 7A) or PKD (FIG. 7B). Western Blot Analysis and Immunoprecipitations. […] Following treatment, cells were lysed, and the relative abundance of UIIR, active p38 and ERK1/2, and active PKD was determined with commercially-available antibodies (Alpha Diagnostic, and Cell Signaling Technologies, Inc., respectively). The antibody for CaMKI was obtained from T. Soderling (Vollum Institute, Oregon Health Sciences University, Portland Oreg.).

[5] = system: ANF, BNP, αMHC and SkA mRNA; experiment: Semi-quantitative RT-PCR of hypertrophy marker genes in cardiomyocytes; format: cell-based, rat; settings: AdUIIR-infected cardiomyocytes; UII 100 nM, STO-609 250 ng/mL, 48 h
Experimental: as §1
Reverse Transcription and Semi-quantitative PCR—Cardiomyocytes were cultured in 100-mm dishes at a density of 1×10^5 cells/cm^2. 24 h post-plating, cells were treated as indicated. Following treatment, total RNA was isolated with TRIzol® reagent (Invitrogen) cDNA was synthesized using Super-Script™III (Invitrogen) per the manufacturer's instructions. Semi-quantitative PCR was then performed using gene-specific primers for UIIR, hypertrophy marker genes and glyceraldehyde-3-phosphate dehydrogenase (GAPDH) (Integrated DNA Technologies). Sequences of gene-specific primers were as follows: for UIIR, sense 5′-[…]-3′ (SEQ ID NO: 1) and antisense 5′-[…]-3′ (SEQ ID NO: 2); for ANF, sense 5′-[…]-3′ (SEQ ID NO: 3) and antisense 5′-[…]-3′ (SEQ ID NO: 4); for BNP sense, 5′-[…]-3′ (SEQ ID NO: 5) and anti-sense 5′-[…]-3′ (SEQ ID NO: 6); for αMHC sense, 5′-[…]-3′ (SEQ ID NO: 7) and antisense 5′-[…]-3′ (SEQ ID NO: 8); for SkA sense, 5′-[…]-3′ (SEQ ID NO: 9) and antisense 5′-[…]-3′ (SEQ ID NO: 10); and for GAPDH sense, 5′-[…]-3′ (SEQ ID NO: 11) and antisense 5′-[…]-3′ (SEQ ID NO: 12).

CaM-KIV = target: T1, CaM-KIV (Homo sapiens, UniProt Q16566); settings: cited from earlier work
T1 sequence (Q16566 1-473): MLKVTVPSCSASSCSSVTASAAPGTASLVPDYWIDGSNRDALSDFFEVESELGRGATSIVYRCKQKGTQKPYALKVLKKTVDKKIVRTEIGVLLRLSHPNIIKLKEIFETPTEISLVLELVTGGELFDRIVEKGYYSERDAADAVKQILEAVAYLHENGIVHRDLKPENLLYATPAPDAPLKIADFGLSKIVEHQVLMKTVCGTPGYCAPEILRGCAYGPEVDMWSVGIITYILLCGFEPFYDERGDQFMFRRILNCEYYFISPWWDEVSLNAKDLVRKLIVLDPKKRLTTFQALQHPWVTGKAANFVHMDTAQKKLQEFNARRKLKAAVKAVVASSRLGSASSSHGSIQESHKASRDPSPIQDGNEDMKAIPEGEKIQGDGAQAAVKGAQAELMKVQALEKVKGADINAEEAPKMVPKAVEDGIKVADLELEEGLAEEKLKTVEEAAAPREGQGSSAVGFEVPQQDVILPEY

PKD [6] = experiment: Western blot of PKD phosphorylation (phospho-Ser744/748) in cardiomyocytes; format: cell-based, rat; settings: AdUIIR-infected cardiomyocytes; UII with STO-609 for 2 or 5 min
Experimental: as §1
(§3) Western Blot Analysis and Immunoprecipitations. Cardiomyocytes were cultured in 100-mm dishes as described in the previous section. 24 h post-plating, cells were treated with UII and various pharmacological inhibitors as indicated. Following treatment, cells were lysed, and the relative abundance of UIIR, active p38 and ERK1/2, and active PKD was determined with commercially-available antibodies (Alpha Diagnostic, and Cell Signaling Technologies, Inc., respectively). The antibody for CaMKI was obtained from T. Soderling (Vollum Institute, Oregon Health Sciences University, Portland Oreg.).
UII activates PKD in a CaMKK dependent manner. A parallel pathway involving PKD phosphorylatea HDACs resulting in their 14-3-3-dependent translocation […] (19). […] Next, it was determined whether UII stimulation could activate PKD which would account for the UII-induced HDAC5 translocation […] possibly working in conjunction with CaMKI. To determine whether UII activates PKD, AdUIIR-infected cardiomyocyte cultures were treated with UII for various times up to 60 min, and whole cell lysates were collected and the phosphorylation status of PKD was measured by Western blot analysis by using an antibody that recognizes the active form of PKD (phospho-Ser744/748). […]

CaM-KI = CaM-KI (Homo sapiens, UniProt Q14012); settings: cited from earlier work
Chain of CaM-KI (Q14012 whole entry, species assumed): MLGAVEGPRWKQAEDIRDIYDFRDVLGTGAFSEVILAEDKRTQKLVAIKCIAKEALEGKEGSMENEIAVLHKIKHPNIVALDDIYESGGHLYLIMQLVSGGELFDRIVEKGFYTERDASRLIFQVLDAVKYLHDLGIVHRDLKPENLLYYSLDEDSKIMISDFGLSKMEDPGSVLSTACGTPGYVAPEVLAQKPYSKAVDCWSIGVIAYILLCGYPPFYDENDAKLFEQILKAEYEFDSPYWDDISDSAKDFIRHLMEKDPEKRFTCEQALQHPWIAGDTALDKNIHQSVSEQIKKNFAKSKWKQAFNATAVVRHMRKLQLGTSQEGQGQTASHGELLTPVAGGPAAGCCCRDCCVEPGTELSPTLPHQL

p42 MAP kinase = p42 MAP kinase (Homo sapiens, UniProt P28482); settings: cited from earlier work
Chain of p42 MAP kinase (P28482 whole entry): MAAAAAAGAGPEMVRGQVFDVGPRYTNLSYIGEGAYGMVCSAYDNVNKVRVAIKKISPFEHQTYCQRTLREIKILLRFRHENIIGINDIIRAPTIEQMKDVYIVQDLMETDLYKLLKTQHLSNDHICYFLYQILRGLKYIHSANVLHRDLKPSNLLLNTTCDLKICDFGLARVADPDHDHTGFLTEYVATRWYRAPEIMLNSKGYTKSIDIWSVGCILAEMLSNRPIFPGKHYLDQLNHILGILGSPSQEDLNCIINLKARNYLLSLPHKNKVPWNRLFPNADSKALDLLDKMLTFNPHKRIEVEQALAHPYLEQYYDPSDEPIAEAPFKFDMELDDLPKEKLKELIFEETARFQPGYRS

PKA = settings: cited from earlier work
p38 and ERK1/2 = experiment: Western blot of p38 and ERK1/2 phosphorylation in cardiomyocytes; format: cell-based, rat; settings: AdUIIR-infected cardiomyocytes; UII with STO-609 for 5 min
Experimental: as §1, §3
UII-dependent activation of p38 and ERK1/2 requires CaMKK. MAP kinases play an important role in mediating intracellular signaling. They are involved in cellular processes such as hypertrophy (7-10, 53, 54). More interesting, cross talk has been reported between the CaMKs and the MAPKs in neurons (11). There are three distinct families of MAP kinases (ERKs, p38s, and JNKs)(55). […] Next, whether UII stimulation of the MAP kinases was dependent on CaMKK was determined. AdUIIR-infected cardiomyocyte cultures were treated with UII for various times up to 60 min, and the phosphorylation status of p38 and ERK MAPKs were measured by Western blot analysis using antibodies that detect the active (phosphorylated) forms of these kinases.

CaMKKa = CaMKKa (Rattus norvegicus, UniProt P97756); settings: cited from earlier work
Chain of CaMKKa (P97756 whole entry): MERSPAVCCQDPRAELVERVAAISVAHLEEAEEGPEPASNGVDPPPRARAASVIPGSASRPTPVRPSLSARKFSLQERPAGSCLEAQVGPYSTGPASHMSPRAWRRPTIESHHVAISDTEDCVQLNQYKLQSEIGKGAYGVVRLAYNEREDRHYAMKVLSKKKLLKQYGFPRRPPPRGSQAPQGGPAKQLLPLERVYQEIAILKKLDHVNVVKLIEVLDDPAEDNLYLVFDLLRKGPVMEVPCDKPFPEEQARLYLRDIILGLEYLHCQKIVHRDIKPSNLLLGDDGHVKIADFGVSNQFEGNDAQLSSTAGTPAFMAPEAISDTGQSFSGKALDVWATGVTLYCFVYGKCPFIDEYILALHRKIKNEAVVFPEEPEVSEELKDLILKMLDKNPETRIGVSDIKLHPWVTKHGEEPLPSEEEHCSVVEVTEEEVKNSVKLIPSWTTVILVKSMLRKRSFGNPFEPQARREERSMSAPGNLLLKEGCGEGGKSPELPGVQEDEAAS

ERK1/2 = experiment: Western blot of AngII or Et-1 stimulated ERK1/2 phosphorylation in cardiomyocytes; format: cell-based, rat; settings: AngII 100 nM or Et-1 10 nM for 10 min; STO-609 250 ng/mL
Experimental: as §2

CaMKI = experiment: Western blot of CaMKI phosphorylation (phospho-Thr178) in cardiomyocytes; format: cell-based, rat; settings: AdUIIR-infected cardiomyocytes; UII with STO-609 for 2 or 5 min
Experimental: as §1, §3
UII stimulation results in the activation of CaMKI. […] One of the major downstream effectors of CaMKK is CaMKI. In addition to calcium/calmodulin, CaMKI requires phosphorylation by CaMKK to be active. To determine whether UII activates CaMKI, AdUIIR-infected cardiomyocyte cultures were treated with UII for various times up to 60 min, and whole cell lysates were collected and the phosphorylation status of CaMKI was measured by Western blot analysis by using an antibody that recognizes the active form of CaMKI (phospho-Thr178). […] CaMKI remained phosphorylated and active through 60 min of UII stimulation. Thus, UII activates CaMKI in cardiomyocytes.

PKC = settings: cited from earlier work

In the case of CNC[C@H](O)c1cccc(O)c1 [PE, phenylephrine], the “UIIR mRNA expression” value (UIIR) is reported as “up-regulated the UIIR messenger RNA” and the UIIR protein expression (UIIR) is reported as “up-regulation of UIIR”.
With C[S+]([O-])c1ccc(-c2nc(-c3ccncc3)c(-c3ccc(F)cc3)[nH]2)cc1 (stereo not drawn) [SB203580] the “effect of inhibitor on CaMKI activation of ANF, SkA and MEF2 reporter luciferase activity” value [1] was “completely blocked”, the “effect of inhibitor on UII activation of ANF, SkA and MEF2 reporter luciferase activity” value [2] was “completely blocked” and the “effect of inhibitor on UII-induced association of HDAC5 with 14-3-3β” value (shortened to “effect of inhibitor … with 14-3-3β”) [3] was “no effect”.
For O=C(O)c1ccc2c3c1cccc3c(=O)n1c3ccccc3nc21 [STO-609, 7-H-Benz[de]benzimidazo[2,1-a]isoquinoline-7-one-3-carboxylic acid], the “effect of inhibitor on AngII and Et-1 activation of PKD” value (PKD [4]) was “CaMKK is required for AngII and Et-1 activation of ERK1/2 and PKD”, the “effect of inhibitor on UII-stimulated hypertrophy marker gene mRNA expression (ANF, BNP, αMHC, SkA)” value [5] was “UII was unable to stimulate hypertrophy marker gene expression over control; also recorded: UII was unable to stimulate the expression of ANF, BNP, αMHC or SkA” and the “effect of inhibitor on UII activation of ANF, SkA and MEF2 reporter luciferase activity” value [2] was “completely blocked; also recorded: UII was incapable of stimulating any of the reporters”. The IC50 (CaM-KIV) was greater than 31.8 µM, the “effect of inhibitor on UII-dependent phosphorylation of PKD” value (PKD [6]) was “UII was unable to stimulate PKD” and the IC50 (CaM-KI) was greater than 31.8 µM. For the same compound, the IC50 (p42 MAP kinase) was greater than 31.8 µM, the “effect of inhibitor … with 14-3-3β” value [3] was “loss of UII-induced association of HDAC5 with 14-3-3β; also recorded: decreased association of HDAC5 with 14-3-3β” and the “IC50 for PKA” value (PKA) was greater than 10 µg/mL. For the same compound, the “effect of inhibitor on UII-dependent phosphorylation of p38 and ERK1/2” value (p38 and ERK1/2) was “UII was unable to stimulate p38 or ERK1/2”, the IC50 (CaMKKa) was 0.382 µM and the “effect of inhibitor on AngII and Et-1 activation of ERK1/2” value (ERK1/2) was “CaMKK is required for AngII and Et-1 activation of ERK1/2 and PKD”. The “effect of inhibitor on UII-dependent activation (phosphorylation) of CaMKI” value (CaMKI) was “UII was unable to stimulate CaMKI; also recorded: inhibited” and the “IC50 for PKC” value (PKC) was greater than 10 µg/mL.
For N#CC(=C(/N)Sc1ccccc1N)/C(C#N)=C(\N)Sc1ccccc1N [U0126], the “effect of inhibitor on CaMKI activation of ANF, SkA and MEF2 reporter luciferase activity” value [1] was “completely blocked”, the “effect of inhibitor on UII activation of ANF, SkA and MEF2 reporter luciferase activity” value [2] was “completely blocked” and the “effect of inhibitor … with 14-3-3β” value [3] was “loss of UII-induced association of HDAC5 with 14-3-3β; also recorded: reduced UII-dependent association with 14-3-3β”.
With “angiotensin II (DRVYIHPF; Angiotensin-2; UniProt P01019 25-32, looked up) [AngII, humoral hypertrophic agonist acting on the Gq-coupled angiotensin II receptor]” the “UIIR mRNA expression” value (UIIR) was “up-regulated the UIIR messenger RNA” and the UIIR protein expression (UIIR) was “up-regulation of UIIR”.
